Results from US20080221163A1, “Selective Estrogen Receptor Modulators” (priority 2005, published 2008).
Where a name gives a salt, the structure may show the parent alone. Read-outs that look alike come from different tables or passages of the source.

Legend:
[1] = system: estrogen-induced response; assay: 3-Day Rat Uterus Antagonist Assay; type: in vivo; conditions: immature female rats, oral, 3 days, with E2 0.1 mg/kg; for inhibition of the estrogen-induced response (uterine weight/body weight ratio): administered at 0.01, 0.1 and 1.0 mg/kg
From the text: 3-Day Rat Uterus Antagonist Assay: This model for uterine antagonism utilizes immature (3 week old) female rats that are highly sensitive to estrogenic stimulation of the uterus given that their circulating estrogen levels are prepubertal. The uteri from immature rats are fully responsive to exogenous estrogen, yet are quiescent in the absence of exogenous estrogen. Administration of exogenous estrogen to immature rats produces a reliable elevation of uterine weight, which can be used to study uterine antagonist effects. The rats are treated with both estradiol and 4 different concentrations of a compound of the present invention for 3 days and then uterine wet weights are measured.
Nineteen to twenty-one day old (or 45-50 g) female rats are orally treated with E2 (0.1 mg/kg, a maximal stimulatory estrogenic stimulus for reliably increasing uterine weight) and 10, 1.0, 0.1 and 0.01 mg/kg test compound for 3 days, 6 rats per group. Test compounds are dissolved in 20% β-hydroxycyclodextrin and administered by oral gavage in a volume of 0.2 mL daily (15 min. prior to the ethynyl estradiol gavage). A vehicle control, E2 alone and E2+raloxifene are also done as controls. The animals are fasted overnight following the final dose. On the following morning, the animals are weighed, then euthanized (by carbon dioxide asphyxiation) and the uteri rapidly collected (via a mid-line ventral incision) and weighed.
Uterine weight/body weight ratios (UWR) are calculated for each animal. The percent inhibition of the estrogen-induced response is then calculated by the following formula: percent inhibition=100×(UWRestrogen−UWRtest compound/UWRestrogen−UWRcontrol). ED50 values are derived from a semi-log regression analysis of the linear aspect of the dose response curve. Both the UWR data and the percent inhibition data are statistically analyzed by one way analysis of variance (ANOVA) with post-hoc testing by Fisher's PLSD when indicated by a p≦0.05. Statistical analyses are performed using the Statview® 4.0 software package.

[2] = system: Ishikawa human endometrial tumor cells; assay: Ishikawa Cell Proliferation Assay (alkaline phosphatase readout; agonist and antagonist modes); type: cell-based; conditions: for stimulation compared with tamoxifen: compound alone
Method: Ishikawa Cell Proliferation Assay: This assay measures cell proliferation (using an alkaline phosphatase readout) in both an agonist mode in the presence of a compound of the present invention alone, and in an antagonist mode in which the ability of a compound of the present invention to block estradiol stimulation of growth is measured.
Ishikawa human endometrial tumor cells are maintained in MEM (minimum essential medium, with Earle's salts and L-Glutamine, Gibco BRL, Gaithersburg, Md.), supplemented with 10% fetal bovine serum (FBS) (V/V), (Gibco BRL). One day prior to assay, growth media is changed to assay medium, DMEM/F-12 (3:1) (Dulbecco's Modified Eagle Medium: Nutrient Mixture F-12, 3:1 Mixture, phenol red-free, Gibco BRL) supplemented with 5% dextran coated charcoal stripped fetal bovine serum (DCC-FBS) (Hyclone, Logen, Utah), L-Glutamine (2 mM), MEM sodium pyruvate (1 mM), HEPES (N-[2-hydroxyethyl]piperazine-N′-[2-ethanesulfonic acid] 2 mM) all from Gibco BRL). After an overnight incubation, Ishikawa cells are rinsed with Dulbecco's Phosphate Buffered Saline (1×) (D-PBS) without Ca^+2 and Mg^+2 (Gibco BRL), and trypsinized by a 3 minute incubation with 0.25% Trypsin/EDTA, phenol red-free (Gibco BRL). Cells are resuspended in assay medium and adjusted to 250,000 cells/mL. Approximately 25,000 cells in a 100 μl media are added to flat-bottom 96 wells microculture plates (Costar 3596) and incubated at 37° C. in a 5% CO2 humidified incubator for 24 hours. The next day, serial dilutions of compounds are prepared in assay medium (at 6 times the final concentration in the assay). The assay is run in dual mode, agonist and antagonist modes.
For the agonist mode, plates receive 25 μl/well of assay medium followed by 25 μl/well of a diluted compound of the present invention (at 6× the final concentrations). For the antagonist mode, plates receive 25 μl/well of 6 nM E2 (β-Estradiol, Sigma, St. Louis, Mo.) followed by 25 μl/well of a diluted compound of the present invention (at 6× the final concentrations). After an additional 48-hour incubation at 37° C. in a 5% CO2 humidified incubator, media is aspirated from wells and 100 μl fresh assay medium is added to each microculture. Serial dilutions of compounds are prepared and added to the cells as described above. After an additional 72 hour incubation at 37° C. in a 5% CO2 humidified incubator, the assay is quenched by removing media and rinsing plates twice in Dulbecco's Phosphate Buffered Saline (1×) (D-PBS) (Gibco BRL). The plates are dried for 5 minutes and frozen at −70° C. for at least 1 hour. The plates are then removed from the freezer and allowed to thaw at room temperature. To each well, 100 μl of 1-Step™ PNPP (Pierce Chemical Company, Rockford, Ill.) is added. After a 20-minute incubation, plates are read on a spectophotometer at 405 nm.
The data is fitted to a linear interpolation to derive EC50 (for agonist mode) or IC50 (for antagonist mode) values. For the antagonist mode, a % efficacy for each compound is calculated versus E2 (1 nM) alone. For the agonist mode, a % efficacy for each compound is calculated versus the response to tamoxifen.

[3] = 10-Day Rat Hormone (Ovarian Stimulation) Screen; type: in vivo; conditions: mature F344 female rats, oral gavage 10 days, serum about 2 hours after 10th dose, RIA
Method: 10-Day Rat Hormone (Ovarian Stimulation) Screen: An initial, first screen for ovarian toxicity is conducted using a 10-day rat hormone study to measure estradiol and luteinizing hormone levels after compound administration. This screen is conducted by administering compound by oral gavage for 10 days to mature (9-10 week old) F344 female rats. Trunk blood is collected by rapid decapitation for evaluation of LH and estradiol levels approximately 2 hours after the 10th dose. Serum, obtained by centrifugation, is removed and stored frozen below −60° C. until assayed. Serum levels of LH and estradiol are measured using radioimmunoassay (RIA) methods.
Rat LH primary antibody and reference preparations (rat LH:RP-3) are obtained from Dr. A. F. Parlow, Director, Pituitary Hormones and Antisera Center, Harbor-UCLA Medical Center, Torrance, Calif. The LH assay upper limits of detection are 30 ng/mL and the lower limits of detection are 0.1 ng/mL for the 100 μl samples.
E2 Clinical Assays. DiaSorin s.r.l., Saluggia (Vercelli), Italy. The upper limit of detection is 1000 pg/mL and the lower limit of detection is 5 pg/mL.

For CS(=O)(=O)c1ccc2c(c1)OC(c1ccc(OCCN3CCCCC3)cc1)c1c-2ccc2cc(O)ccc12 (racemic) [Example 3, 8-Methanesulfonyl-5-[4-(2-piperidin-1-yl-ethoxy)-phenyl]-5H-6-oxa-chrysen-2-ol, mono-Hydrochloride salt], the “% antagonism” value [1] was 81%, the ED50 [1] was 0.17 mpk and the “inhibition of the estrogen-induced response (uterine weight/body weight ratio)” value [1] was “inhibit the estrogen-induced response”. The “stimulation compared with tamoxifen” value ([2]; agonist mode) was “less stimulatory than tamoxifen”, the “circulating LH levels” value [3] was “did not significantly elevate” and the circulating estradiol levels [3] was “did not significantly elevate”.
CSc1ccc2c(c1)OC(c1ccc(OCCN3CCCCC3)cc1)c1c-2ccc2cc(O)ccc12.Cl (centres unmarked) [Example 1, 8-Methylsulfanyl-5-[4-(2-piperidin-1-yl-ethoxy)-phenyl-5H-6-oxa-chrysen-2-ol hydrochloride] showed an Emax ([2]; Homo sapiens, Ishikawa, agonist mode, % efficacy versus the response to tamoxifen, read-out: relative % efficacy) of 26%, an IC50 ([2]; Homo sapiens, Ishikawa, antagonist mode, block of estradiol stimulation) of 45 nM and an Emax ([2]; Homo sapiens, Ishikawa, antagonist mode, versus E2 (1 nM) alone, read-out: % efficacy) of 92%.
For CSc1ccc2c(c1)OC(c1ccc(OCCN3CCCCC3)cc1)c1c-2ccc2cc(O)ccc12.Cl (centres unmarked) [Example 1], the “% antagonism” value [1] was 69%, the ED50 [1] was 0.22 mpk and the “inhibition of the estrogen-induced response (uterine weight/body weight ratio)” value [1] was “inhibit the estrogen-induced response”. The “stimulation compared with tamoxifen” value ([2]; agonist mode) was “less stimulatory than tamoxifen”.
With CNS(=O)(=O)c1ccc2c(c1)OC(c1ccc(OCCN3CCCCC3)cc1)c1c-2ccc2cc(O)ccc12.Cl (centres unmarked) [Example 5, 8-N-methyl sulfonamide-5-[4-(2-piperidin-1-yl-ethoxy)-phenyl]-5H-6-oxacbrysen-2-ol] the “stimulation compared with tamoxifen” value ([2]; agonist mode) was “less stimulatory than tamoxifen”.
For CCS(=O)(=O)c1ccc2c(c1)OC(c1ccc(OCCN3CCCCC3)cc1)c1c-2ccc2cc(O)ccc12.Cl (centres unmarked) [Example 7, 8-Ethanesulfonyl-5-[4-(2-piperidin-1-yl-ethoxy)-phenyl]-5H-6-oxa-chrysen-2-ol hydrochloride salt], the “stimulation compared with tamoxifen” value ([2]; agonist mode) was “less stimulatory than tamoxifen”.
With CNS(=O)(=O)c1ccc2c(c1)-c1ccc3cc(O)ccc3c1C(c1ccc(OCCN3CCCCC3)cc1)O2.Cl (centres unmarked) [Example 9, 2-Hydroxy-5-[4-(2-piperidin-1-yl-ethoxy)-phenyl]-5H-6-oxa-chrysen-9-sulfonic acid methylamide hydrochloride salt] the “stimulation compared with tamoxifen” value ([2]; agonist mode) was “less stimulatory than tamoxifen”.
In the case of CS(=O)(=O)c1ccc2c(c1)-c1ccc3cc(O)ccc3c1C(c1ccc(OCCN3CCCCC3)cc1)O2.Cl (centres unmarked) [Example 10, 9-Methanesulfonyl-5-[4-(2-piperidin-1-yl-ethoxy)-phenyl]-5H-6-oxa-chrysen-2-ol hydrochloride salt], the “stimulation compared with tamoxifen” value ([2]; agonist mode) is reported as “less stimulatory than tamoxifen”.
